Results on 11 compounds are retold here after patent US20240368133A1, “Compounds for the Treatment of Pain, in Particular, Neuropathic Pain, and/or Other Diseases or Disorders that are Associated with AT2R and/or AT2R Mediated Signaling” (Confo Therapeutics N.V., priority 2021, published 2024).

Data set [1] is described as follows: PAMPA (Parallel Artificial Membrane Permeability Assay), GIT model. It counts as in vitro ADME. From the text: The Parallel Artificial Membrane Permeability Assay (PAMPA) is used as an in vitro model of passive, transcellular permeation. PAMPA eliminates the added complexities of active transport, allowing ranking compounds just based on a simple membrane permeability property. This simple assay also allows evaluation of permeability over a large pH range, which is valuable for a preliminary understanding of how orally delivered compounds might be absorbed across the entire gastrointestinal tract. Depending upon the types of lipids used and other experimental conditions, PAMPA may be designed to model absorption in gastrointestinal tract (PAMPA-GIT), blood-brain barrier penetration (PAMPA-BBB) or skin penetration (Skin PAMPA).
All steps of the PAMPA were carried out according to pION Inc. PAMPA Explorer™ Manual. The main principle of the assay is the incubation of compound in donor chamber (a well in Donor Plate) with aqueous buffer, which is separated from acceptor chamber (a well in Acceptor Plate) with another buffer by a phospholipid or hydrocarbon membrane fixed on a filter support. After the test, concentrations in the corresponding donor and acceptor wells are measured and permeability is calculated.
GIT model was simulated using GIT-0 phospholipid mix. Verapamil and quinidine (high permeability) and ranitidine (low permeability) were used as reference compounds. All compounds were tested in triplicates.
Solutions of the test and reference compounds were added into the Donor Plate wells in Prisma HT buffer (pH 7.4). Acceptor Sink Buffer was added into each well of the Acceptor Plate. Incubation was done at room temperature for 4 hours without stirring. After incubation, aliquots from both plates were transferred to optic UV-Vis plates and optic plates were read on microplate reader in absorbance mode in the range of 202-500 nm with 4 nm step. Compounds with low UV-Vis signal were detected by LC-MS/MS method (API 3000 (PE Sciex)). Both the positive and negative ion modes of the TurboIonSpray ion source were used. Acquisition and analysis of the data were performed using Analyst 1.5.2 software (PE Sciex). The apparent permeability coefficient was calculated according to the equation shown below:
with: • VD=volume of transport buffer in donor compartment • A=surface area of the lipids in the insert (effective growth area of the insert—0.3 sq.cm) • t=time of the assay, seconds • Cdon=final concentration of test compound in the donor compartment • Cref=starting concentration of test compound in the donor compartment • εa=apparent filter porosity, equals to 0.76
[formula] • Cacc=final concentration of test compound in the […] compartment • τss=steady state lag time, estimated as (54RM+1)×60 s
Values of Cdon/Cref and Cacc/Cref are practically calculated using optical absorbance data. Mass retention by the lipid membrane is a normal condition in PAMPA assays for hydrophobic compounds but high levels of the mass retention makes compounds more permeable in vivo than it could be predicted from PAMPA assay. Mass retention was calculated as follows:
• [drug]acc=final OD of test compound in acceptor well • [drug]d=starting OD of test compound in a donor well • [drug]fd=final OD of test compound in a donor well
A general note: PAMPA measures passive passage across an artificial lipid membrane.

Data set [2] can be described thus: Caco-2 permeability assay. The settings on record: human; for recovery at 90 min, 10 µM / efflux ratio at 90 min, 10 µM: Caco-2, pH 7.4; for Papp A→B at 90 min, 10 µM: pH 7.4, Caco-2, AB. It counts as in vitro ADME. As for the experimental part: Caco-2 cells were cultured in 75 cm^2 flasks to 80-90% confluence according to the ATCC and Millipore recommendations (Arena A. et al., 2003) in humidified atmosphere at 37° C. and 5% CO2. Cells were detached with Trypsin/EDTA solution and resuspended in the cell culture medium to a final concentration of 2×10^5 cells/ml. 500 μl of the cell suspension was added to each well of HTS 24-Multiwell Insert System and 1000 μl of prewarmed complete medium was added to each well of the feeder-plate. Caco-2 cells were incubated in Multiwell Insert System for 21 days before the transport experiments. The medium in filter plate and feeder tray was refreshed every other day. After 21 days of the cell growth, the integrity of the monolayer was verified by measuring the transepithelial electrical resistance (TEER) for every well using the Millicell-ERS system ohm meter. The final TEER values were within the range 150-600 Ω×cm^2 (Srinivasan B. et al., 2015) as required for the assay conditions. 24-well insert plate was removed from its feeder plate and placed in a new sterile 24-well transport analysis plate. The inserts were washed with PBS after medium aspiration. To determine the rate of compounds transport in apical (A)-to-basolateral (B) direction, 300 μL of the test compound dissolved in transport buffer at 10 μM (HBSS, 25 mM HEPES, pH=7.4) was added into the filter wells; 1000 μL of buffer (HBSS, 25 mM HEPES, pH=7.4) was added to transport analysis plate wells. Propranolol, Atenolol, Quinidine and Digoxin were used as reference compounds. The plates were incubated for 90 min at 37° C. under continuous shaking at 50 rpm. 75 μL aliquots were taken from the donor and receiver compartments for LC-MS/MS analysis. All samples were mixed with 2 volumes of acetonitrile followed by protein sedimentation by centrifuging at 10000 rpm for 10 minutes. Supernatants were analyzed using the HPLC system coupled with tandem mass spectrometer. The apparent permeability (Papp) was calculated for Caco-2 permeability assay using the following equation:
• VA=volume of transport buffer in acceptor well • Area=surface area of the insert (equals to effective growth area of the insert −0.31 sq.cm) • Time=time of the assay • [drug]acc=concentration of test compound in acceptor well • [drug]initial,d=initial concentration of test compound in a donor well • Papp is expressed in 10^−6 cm/sec.
The % recovery can be useful in interpreting the Caco-2 data. If the recovery is very low, this may indicate poor solubility, binding of the compound to the test plate materials, metabolism by the Caco-2 cells, or accumulation of the compound in the cell monolayer. The % recovery was calculated using the following equation:
• Vacc=volume of compound solution in acceptor well […] • Vd=volume of compound solution in […] • Cacc=concentration of test compound in acceptor well (μM) • Cinitial,d=initial concentration of test compound in a donor well (μM)
(Caco-2 cells form a polarised layer with tight junctions and transporters.)

Structures are written as SMILES.

A word on the Papp A→B: it is how fast a substance crosses the layer from the apical side. Usually efflux ratio stands for the permeability from basolateral to apical divided by that in the opposite direction, in the common usage.

Regarding `CCCCOC(=O)NS(=O)(=O)c1ccc(C(F)(F)F)cc1N1CCN(Cc2nc3ccccc3n2C)CC1` [Compound A-09, butyl N-[2-[4-[(1-methylbenzimidazol-2-yl)methyl]piperazin-1-yl]-4-(trifluoromethyl)phenyl]sulfonylcarbamate], in data set [1], the “Mass retention (%)” value amounted to 10% and the “Permeability Papp, Log10 (10^−6 cm/s)” value is <−7 Log10 (10^−6 cm/s).
On the same counts, the results for `CCCCNC(=O)NS(=O)(=O)c1ccc(C(F)(F)F)cc1N1CCN(Cc2nc3ccccc3n2C)CC1` [Compound A-10, 1-butyl-3-[2-[4-[(1-methylbenzimidazol-2-yl)methyl]piperazin-1-yl]-4-(trifluoromethyl)phenyl]sulfonyl-urea] are 8% and <−7 Log10 (10^−6 cm/s).
On the same counts, the results for `CCCCNC(=O)NS(=O)(=O)c1ccc(C)cc1N1CCN(Cc2nc3ccccc3n2C)CC1` [Compound A-12, 1-butyl-3-[4-methyl-2-[4-[(1-methylbenzimidazol-2-yl)methyl]piperazin-1-yl]phenyl]sulfonyl-urea] are 7% and <−7 Log10 (10^−6 cm/s).
On the same counts, the results for `CC(C)Cc1ccc(-c2nn[nH]n2)c(N2CCN(Cc3nc4ccccc4n3C)CC2)c1` [Compound A-20, 2-[[4-[5-isobutyl-2-(2H-tetrazol-5-yl)-phenyl]piperazin-1-yl]methyl]-1-meth-yl-benzimidazole] are 28% and <−7 Log10 (10^−6 cm/s).
As for `CC(C)Oc1ccc(-c2nn[nH]n2)c(N2CCN(Cc3nc4ccccc4n3C)CC2)c1` [Compound A-24, 2-[[4-[5-isopropoxy-2-(2H-tetrazol-5-yl)phenyl]piperazin-1-yl]methyl]-1-methyl-benzimidazole], in data set [1], the “Mass retention (%)” value is given as 24% and the “Permeability Papp, Log10 (10^−6 cm/s)” value is reported as <−7 Log10 (10^−6 cm/s).
Take `CC(C)Cc1ccc(-c2nn[nH]n2)c(N2CCN(Cc3nc4ccccc4c(=O)[nH]3)CC2)c1` [Compound A-31, 2-[[4-[5-isobutyl-2-(2H-tetrazol-5-yl)phenyl]piperazin-1-yl]methyl]-3H-quinazolin-4-one]: in data set [2], the recovery at 90 min, 10 µM worked out at 77% and the Papp A→B at 90 min, 10 µM was 2.8 ×10⁻⁶ cm/s.
For the compound `CC(C)Oc1ccc(-c2nn[nH]n2)c(N2CCN(Cc3nc4ccccc4c(=O)[nH]3)CC2)c1` [Compound A-32], in data set [1], the “Mass retention (%)” value is listed as 20% and the “Permeability Papp, Log10 (10^−6 cm/s)” value is −4.6 Log10 (10^−6 cm/s).
Taken in the same sequence, the figures for `CC(C)Oc1ccc(-c2nn[nH]n2)c(N2CCN(Cc3nc4ccccc4s3)CC2)c1` [Compound A-51, 2-[[4-[5-isoprop-oxy-2-(2H-tetrazol-5-yl)phenyl]piper-azin-1-yl]methyl]-1,3-benzothiazole] were 14% and −4.2 Log10 (10^−6 cm/s).
On to `CC(C)Cc1ccc(-c2nn[nH]n2)c(N2CCN(Cc3cccnn3)CC2)c1` [Compound A-90, 3-[[4-[5-isobutyl-2-(2H-tetrazol-5-yl)phenyl]piperazin-1-yl]methyl]pyridazine], for which, in data set [2], the recovery at 90 min, 10 µM was determined as 91% and the Papp A→B at 90 min, 10 µM is below 3.4 ×10⁻⁶ cm/s.
Regarding `CC(C)Cc1cc(F)c(-c2nn[nH]n2)c(N2CCN(Cc3cccnn3)[C@@H](C)C2)c1` [Compound A-174, 3-[[(2S)-4-[3-fluoro-5-isobutyl-2-(2H-tetrazol-5-yl)phenyl]-2-methyl-piperazin-1-yl]methyl]pyridazine], in data set [2], the efflux ratio at 90 min, 10 µM turned out to be 16; the recovery at 90 min, 10 µM came to 90%; the Papp A→B at 90 min, 10 µM was found to be 0.15 ×10⁻⁶ cm/s. Moreover, in data set [1], the “Mass retention (%)” value amounted to 0% and the “Permeability Papp, Log10 (10^−6 cm/s)” value is on record as −5.5 Log10 (10^−6 cm/s).
Consider `CCC1CN(c2cc(CC(C)C)cc(F)c2-c2nn[nH]n2)CCN1Cc1cccnn1` (centres unmarked) [Compound A-178, 3-[[2-ethyl-4-[3-fluoro-5-isobutyl-2-(2H-tetrazol-5-yl)phenyl]piperazin-1-yl]methyl]pyridazine], for which, in data set [2], the efflux ratio at 90 min, 10 µM amounted to 7.2; the recovery at 90 min, 10 µM is 94%; the Papp A→B at 90 min, 10 µM was determined as 1.2 ×10⁻⁶ cm/s.
